format: physicochemical; conditions: HPLC on reversed phase columns, method [a]: pH 2.7, 0.1% formic acid in water / acetonitrile, linear gradient 10% to 95% acetonitrile

| SMILES | log P |
| --- | --- |
| CC1(C(=O)NC(C#N)c2ccccc2)CC(c2ccc3ncc(Br)cc3c2)=NO1 (centres unmarked) [compound 356] | 3.25[a] |
| CCC(C)N(OC)C(=O)C1(C)CC(c2ccc3ncc(Br)cc3c2)=NO1 (centres unmarked) [compound 659] | 3.96[a] |
| Cc1nn(C2CC2)cc1CNC(=O)C1(C)CC(c2ccc3ncc(Br)cc3c2)=NO1 (centres unmarked) [compound 669] | 2.52[a] |
| CCn1cc(CNC(=O)C2(C)CC(c3ccc4ncc(Br)cc4c3)=NO2)c(OC)n1 (centres unmarked) [compound 639] | 2.63[a] |
| CC1(C(=O)NCC(F)F)CC(c2ccc3ncc(Br)cc3c2)=NO1 (centres unmarked) [compound 653] | 2.56[a] |
| C#Cc1cnc2ccc(C3=NOC(C)(C(=O)NC(C)c4ccc(Cl)cc4)C3)cc2c1 (centres unmarked) [compound 346] | 3.44[a] |
| CC(NC(=O)C1(C)CC(c2ccc3ncc(Br)cc3c2)=NO1)c1nn(C)c(=O)n1C (centres unmarked) [compound 327] | 1.99[a] |
| CC1(C(=O)NC2CCCCC2)CC(c2ccc3ncc(Br)cc3c2)=NO1 (centres unmarked) [compound 239] | 3.63^[a] |
| C=C(C)C1(C(=O)NCCCOCC)CC(c2ccc3ncc(Br)cc3c2)=NO1 (centres unmarked) [compound 518] | 3.37[a] |
| C#CCOc1coc(CNC(=O)C2(C)CC(c3ccc4ncc(Br)cc4c3)=NO2)cc1=O (centres unmarked) [compound 251] | 2.2^[a] |
| CCOCCCNC(=O)C1(C2CC2)CC(c2ccc3ncc(Br)cc3c2)=NO1 (centres unmarked) [compound 270] | 3.21[a] |
| COc1ccnc(CNC(=O)C2(C)CC(c3ccc4ncc(Br)cc4c3)=NO2)c1 (centres unmarked) [compound 664] | 1.49[a] |
| CCOCCCNC(=O)C1(C(C)=O)CC(c2ccc3ncc(Br)cc3c2)=NO1 (centres unmarked) [compound 582] | 2.90[a] |
| COc1ncccc1CNC(=O)C1(C)CC(c2ccc3ncc(Br)cc3c2)=NO1 (centres unmarked) [compound 678] | 2.82[a] |
| CON(C(=O)C1(C)CC(c2ccc3ncc(Br)cc3c2)=NO1)C(C)C (centres unmarked) [compound 651] | 3.59[a] |
| C#Cc1cnc2ccc(C3=NOC(C)(C(=O)NC4CCN(C)CC4)C3)cc2c1 (centres unmarked) [compound 598] | 1.17[a] |
| CC(=O)C1(C(=O)NC(C)C)CC(c2ccc3ncc(Br)cc3c2)=NO1 (centres unmarked) [compound 281] | 2.88[a] |

The remaining lines, values ahead:

| log P | SMILES |
| --- | --- |
| 2.56[a] | C#Cc1cnc2ccc(C3=NOC(C)(C(=O)NCc4cn(CC)nc4Br)C3)cc2c1 (centres unmarked) [compound 634] |
| 2.62[a] | COC1(C(=O)NCc2cnc(C)cn2)CC(c2cc(Cl)c3ncc(Br)cc3c2)=NO1 (centres unmarked) [compound 575] |
| 1.76[a] | C#Cc1cnc2ccc(C3=NOC(C)(C(=O)NC(C)c4nn(C)c(=O)n4C)C3)cc2c1 (centres unmarked) [compound 352] |
| 2.53[a] | C#Cc1cnc2c(Cl)cc(C3=NOC(OC)(C(=O)NCc4cn(CC)nc4C)C3)cc2c1 (centres unmarked) [compound 587] |
| 2.20[a] | COc1ccc(CNC(=O)C2(C)CC(c3ccc4ncc(Br)cc4c3)=NO2)nc1 (centres unmarked) [compound 666] |
| 3.17[a] | C=C(C)C1(C(=O)NCc2cn(CCC)nc2C)CC(c2ccc3ncc(Br)cc3c2)=NO1 (centres unmarked) [compound 519] |
| 2.46[a] | C#Cc1cnc2c(C)cc(C3=NOC(OC)(C(=O)NCc4cnc(C)cn4)C3)cc2c1 (centres unmarked) [compound 611] |
| 2.39[a] | CCSc1cnc2ccc(C3=NOC(C)(C(=O)NCc4cn(CC)nc4C)C3)cc2c1 (centres unmarked) [compound 276] |
| 1.96[a] | C#Cc1cnc2ccc(C3=NOC(C)(C(=O)NCc4ccc(OC)cn4)C3)cc2c1 (centres unmarked) [compound 631] |

same assay, conditions: HPLC on reversed phase columns, method [a]: pH 2.7, 0.1% formic acid in water and acetonitrile, linear gradient 10% to 95% acetonitrile

| SMILES | log P |
| --- | --- |
| CC1(C(=O)NCc2cnn(CC(F)(F)F)c2)CC(c2ccc3ncc(Br)cc3c2)=NO1 (centres unmarked) [compound 777] | 2.60[a] |
| CSc1cc(CNC(=O)C2(C)CC(c3ccc4ncc(Br)cc4c3)=NO2)ccn1 (centres unmarked) [compound 799] | 2.62[a] |
| Cc1cnccc1CNC(=O)C1(C)CC(c2ccc3ncc(Br)cc3c2)=NO1 (centres unmarked) [compound 695] | 1.46[a] |
| CC1(CNC(=O)C2(C)CC(c3ccc4ncc(Br)cc4c3)=NO2)CCC1 (centres unmarked) [compound 757] | 3.65[a] |
| CC1(C(=O)NCC2CC(F)(F)C2)CC(c2ccc3ncc(Br)cc3c2)=NO1 (centres unmarked) [compound 754] | 2.98[a] |
| CC1(C(=O)NCc2ccnc(C(F)(F)F)c2)CC(c2ccc3ncc(Br)cc3c2)=NO1 (centres unmarked) [compound 795] | 2.96[a] |
| C=C(C)CNC(=O)C1(C)CC(c2ccc3ncc(Br)cc3c2)=NO1 (centres unmarked) [compound 715] | 2.90[a] |
| C#Cc1cnc2ccc(C3=NOC(C)(C(=O)NC4CC(F)(F)C4)C3)cc2c1 (centres unmarked) [compound 776] | 2.57[a] |
| C#Cc1cnc2ccc(C3=NOC(C)(C(=O)NCc4cccnc4C#N)C3)cc2c1 (centres unmarked) [compound 812] | 1.70[a] |
| C#Cc1cnc2ccc(C3=NOC(C)(C(=O)NCc4cncc(Cl)n4)C3)cc2c1 (centres unmarked) [compound 789] | 2.41[a] |
| COc1cncc(CNC(=O)C2(C)CC(c3ccc4ncc(Br)cc4c3)=NO2)c1 (centres unmarked) [compound 698] | 1.78[a] |
| C#Cc1cnc2ccc(C3=NOC(C)(C(=O)NCc4ccnc(NC5CC5)c4)C3)cc2c1 (centres unmarked) [compound 809] | 1.45[a] |
| C#Cc1cnc2ccc(C3=NOC(C)(C(=O)NCC4CS(=O)(=O)CCO4)C3)cc2c1 (centres unmarked) [compound 756] | 1.93[a] |

Next, values leading:

| log P | SMILES |
| --- | --- |
| 2.18[a] | C#Cc1cnc2ccc(C3=NOC(C)(C(=O)N4CCOCC4)C3)cc2c1 (centres unmarked) [compound 774] |
| 2.51[a] | CC1(C(=O)NCc2ccnc(F)c2)CC(c2ccc3ncc(Br)cc3c2)=NO1 (centres unmarked) [compound 803] |
| 2.88[a] | CC1(C(=O)N/C(=N/O)C(C)(C)C)CC(c2ccc3ncc(Br)cc3c2)=NO1 (centres unmarked) [compound 739] |
| 2.33[a] | CC(C)c1cccc(CNC(=O)C2(C)CC(c3ccc4ncc(Br)cc4c3)=NO2)n1 (centres unmarked) [compound 686] |
| 3.21[a] | CCOc1ncccc1CNC(=O)C1(C)CC(c2ccc3ncc(Br)cc3c2)=NO1 (centres unmarked) [compound 788] |
| 1.49[a] | CN(C)c1cc(CNC(=O)C2(C)CC(c3ccc4ncc(Br)cc4c3)=NO2)ccn1 (centres unmarked) [compound 801] |
| 2.10[a] | CC1(C(=O)NCc2cnccn2)CC(c2ccc3ncc(Br)cc3c2)=NO1 (centres unmarked) [compound 706] |
| 3.02[a] | C#Cc1cnc2ccc(C3=NOC(C)(C(=O)NCc4ccnc(SC(C)(C)C)c4)C3)cc2c1 (centres unmarked) [compound 796] |
| 1.84[a] | C#Cc1cnc2ccc(C3=NOC(C)(C(=O)NCc4cc(C(C)C)ccn4)C3)cc2c1 (centres unmarked) [compound 793] |
| 1.29[a] | C#Cc1cnc2ccc(C3=NOC(C)(C(=O)NCc4cnccc4C)C3)cc2c1 (centres unmarked) [compound 682] |
| 1.91[a] | CC1(C(=O)NCc2cccnc2C#N)CC(c2ccc3ncc(Br)cc3c2)=NO1 (centres unmarked) [compound 814] |

same assay, conditions: method [a]: HPLC/LC-MS on reversed phase at pH 2.7, 0.1% formic acid in water / acetonitrile, gradient 10% to 95% acetonitrile

| SMILES | log P |
| --- | --- |
| CC(C)NC(=O)C1(C)CC(c2ccc3ncc(NC(=O)OC(C)(C)C)cc3c2)=NO1 (racemic) [compound 430] | 2.77[a] |
| CCn1cc(CNC(=O)C2(C)CC(c3ccc4nc(C#N)c(I)cc4c3)=NO2)c(C)n1 (racemic) [compound 431] | 2.57[a] |
| CC(C)NC(=O)C1(C[Si](C)(C)C)CC(c2ccc3ncc(Br)cc3c2)=NO1 (centres unmarked) [compound 395] | 4.66[a] |
| CC(C)NC(=O)C1(C)CC(c2ccc3nc(C#N)c(I)cc3c2)=NO1 (centres unmarked) [compound 510] | 3.04[a] |

Results, then the compound that gave them:

| log P | SMILES |
| --- | --- |
| 4.19[a] | CN(CC(NC(=O)C1(C)CC(c2ccc3ncc(Br)cc3c2)=NO1)C1CC1)c1ccccc1 (centres unmarked) [compound 362] |
| 2.84[a] | CCOCCCNC(=O)C12CC1C(c1ccc3ncc(Br)cc3c1)=NO2 (racemic) [compound 401] |
| 2.94[a] | CCn1cc(CNC(=O)C2(C)CC(c3ccc4nc(Cl)c(I)cc4c3)=NO2)c(C)n1 (racemic) [compound 432] |

same assay, conditions: method [a]: HPLC/LC-MS on reversed phase at pH 2.7, 0.1% formic acid in water / acetonitrile, linear gradient 10% to 95% acetonitrile

| SMILES | log P |
| --- | --- |
| CN1C(=O)CCC1CNC(=O)C1(C)CC(c2ccc3ncc(Br)cc3c2)=NO1 (centres unmarked) [compound 124] | 1.85^[a] |
| CC1(C(=O)NCC2OCCc3ccccc32)CC(c2ccc3ncc(Br)cc3c2)=NO1 (centres unmarked) [compound 117] | 3.33^[a] |
| CC1(C(=O)NCc2cc(Cl)cc(Cl)c2)CC(c2ccc3ncc(Br)cc3c2)=NO1 (centres unmarked) [compound 97] | 4.16^[a] |
| CC1(C(=O)NCc2ccncc2)CC(c2ccc3ncc(Br)cc3c2)=NO1 (centres unmarked) [compound 102] | 1.34^[a] |
| CC1(C(=O)NCc2ccnc(N3CCCC3)c2)CC(c2ccc3ncc(Br)cc3c2)=NO1 (centres unmarked) [compound 158] | 1.53^[a] |
| C#Cc1cnc2ccc(C3=NOC(C)(C(=O)NCc4ccc(Oc5ccccc5)cc4)C3)cc2c1 (centres unmarked) [compound 175] | 3.8^[a] |
| CC1(C(=O)NCc2ccc3[nH]ccc3c2)CC(c2ccc3ncc(Br)cc3c2)=NO1 (centres unmarked) [compound 116] | 2.92^[a] |

Next, values leading:

| log P | SMILES |
| --- | --- |
| 2.14^[a] | Cn1cncc1CNC(=O)C1(C)CC(c2ccc3ncc(Br)cc3c2)=NO1 (centres unmarked) [compound 203] |
| 4.01^[a] | CC1(C(=O)NCc2cccc(Cl)c2Cl)CC(c2ccc3ncc(Br)cc3c2)=NO1 (centres unmarked) [compound 174] |
| 4.16^[a] | CC1(C(=O)NCCc2ccc(Cl)cc2Cl)CC(c2ccc3ncc(Br)cc3c2)=NO1 (centres unmarked) [compound 110] |
| 4.01^[a] | CCCCC1(C(=O)NC(C)C)CC(c2ccc3ncc(Br)cc3c2)=NO1 (centres unmarked) [compound 73] |
| 2.63^[a] | CCn1cc(CNC(=O)C2(C)CC(c3ccc4ncc(-c5cccs5)cc4c3)=NO2)c(C)n1 (centres unmarked) [compound 142] |
| 3.46^[a] | O=C(NC1CC1)C1(Cc2ccccc2)CC(c2ccc3ncc(Br)cc3c2)=NO1 (centres unmarked) [compound 60] |
| 3.17^[a] | Cc1cc2cc(CNC(=O)C3(C)CC(c4ccc5ncc(Br)cc5c4)=NO3)ccc2[nH]1 (centres unmarked) [compound 114] |
| 3.06^[a] | CC1(C(=O)NCc2cccs2)CC(c2ccc3ncc(Br)cc3c2)=NO1 (centres unmarked) [compound 89] |

same assay, conditions: pH 2.7

| chromatographic logP | SMILES |
| --- | --- |
| 2.71 | COC(=O)C1(C)CC(c2ccc3ncc(I)cc3c2)=NO1 (centres unmarked) [Compound No. 11-30] |

same assay, conditions: reversed phase HPLC column; HPLC reversed phase, pH 2.7, 0.1% formic acid in water / acetonitrile, linear gradient 10% to 95% acetonitrile; calibration with alkan-2-ones; read-out: log P (HCOOH)

| chromatographic logP | SMILES |
| --- | --- |
| 2.71 | O=Cc1cc2cc(Br)cnc2c(F)c1F [3-bromo-7,8-difluoroquinoline-6-carbaldehyde] |
